Reference: US20210251237A1, “PLATFORM FOR DEVELOPING SOIL-BORNE PLANT PATHOGEN INHIBITING MICROBIAL CONSORTIA” (priority 2018, published 2021)
Read-outs that look alike come from different tables or passages of the source.

Tests used:
Assay type in all cases: cell-based
F. culmorum = test: Pathogen suppressive activity plate assay (zone of inhibition); conditions: Table 1; pathogen isolate P61
Phytophthora sojae = test: as above
Phytophthora medicaginis = test: as above; conditions: for zone of inhibition: Table 1; for mean inhibitory zone size: Table 4
Rhizoctonia solani = test: as above; conditions: for mean inhibitory zone size: Table 4
[1] = system: clinical antimicrobials (antibiotic discs); test: Antibiotic disc resistance/susceptibility assay of microbial isolates
Fusarium virguliforme = test: Pathogen suppressive activity plate assay (zone of inhibition); conditions: Table 4
[2] = system: GS1, PS1 and PS3 (overlaid isolates); test: Mutual inhibition activity among GS1, PS1 and PS3; conditions: mild inhibition
Procedure: Each of the microbes—GS1, PS1 and PS3—was grown in the presence of every other isolate (i.e., GS1 with PS1; GS1 with PS3; and PS1 with PS3). Briefly, isolates GS1, PS1 and PS3 were dotted onto the center of individual petri dishes and allowed to grow for 3 days. Dotted isolates were then killed by placing petri dishes over a chloroform-filled watch glass in a safety cabinet for one hour. Subsequently, overlays of the other two isolates spread across the entire petri dish surface. In this way, each isolate was tested as a potential inhibitor (dotted isolates) in combination with every isolate as a target (overlaid isolates). The growth of the microbial isolates was evaluated for the presence or absence of zones of inhibition at the interphase between the bacterial isolates. […] Results from this analysis show the potential for isolates to coexist without inhibiting one another.

[3] = system: GS1 and PS3 (inhibition zones on Bacillus lawns); test: Antimicrobial signaling/responsiveness among GS1, PS1, PS3; conditions: increased inhibition zones around GS1 and PS3 vs single inoculant controls
Fusarium oxysporum = test: Pathogen suppressive activity plate assay (zone of inhibition); conditions: for zone of inhibition: Table 1; for mean inhibitory zone size: Table 4
[4] = system: random collection of Streptomyces from field soils; test: Enhancement of antibiotic production in field-soil Streptomyces
[5] = system: Pythium ultimum var. sporangiferum; test: Pathogen suppressive activity plate assay (zone of inhibition)
Fusarium graminearum = conditions: for zone of inhibition: Table 1; for mean inhibitory zone size: Table 4
Sclerotinia sclerotiorum = test: Pathogen suppressive activity plate assay (zone of inhibition); conditions: for mean inhibitory zone size: Table 4

Streptomyces sp. 3211.1 [PS1]
zone of inhibition (F. culmorum): 0 mm | zone of inhibition (Phytophthora sojae; Table 1, pathogen isolate P52): 0 mm | mean inhibitory zone size (Phytophthora sojae; Table 4, pathogen target isolate P52): 0 mm | zone of inhibition (Phytophthora medicaginis; pathogen isolate P43): 0 mm | zone of inhibition (Phytophthora medicaginis; pathogen isolate P44): 0 mm | mean inhibitory zone size (Phytophthora medicaginis; pathogen target isolate P43): 0 mm | mean inhibitory zone size (Phytophthora medicaginis; pathogen target isolate P44): 0 mm | zone of inhibition (Rhizoctonia solani; Table 1, pathogen isolate P6): 0 mm | mean inhibitory zone size (Rhizoctonia solani; pathogen target isolate P5): 0 mm | mean inhibitory zone size (Rhizoctonia solani; pathogen target isolate P6): 0 mm | mean inhibitory zone size (Rhizoctonia solani; pathogen target isolate P12): 0 mm | Antibiotic resistance characteristics ([1]; Amoxicillin Clavulanate): MR (MR-moderately resistant (1-5 mm)) | Antibiotic resistance characteristics ([1]; Chloramphenicol): R (R-resistant (0 inhibition zone)) | Antibiotic resistance characteristics ([1]; Erythromycin): MR (MR-moderately resistant (1-5 mm)) | Antibiotic resistance characteristics ([1]; Kanamycin): S (S-susceptible (>10 mm)) | Antibiotic resistance characteristics ([1]; Novobiocin 5): MR (MR-moderately resistant (1-5 mm)) | Antibiotic resistance characteristics ([1]; Novobiocin 30): MS (MS-moderately susceptible (6-10 mm)) | Antibiotic resistance characteristics ([1]; Penicillin): R (R-resistant (0 inhibition zone)) | Antibiotic resistance characteristics ([1]; Rifampin): MR (MR-moderately resistant (1-5 mm)) | Antibiotic resistance characteristics ([1]; Streptomycin): MS (MS-moderately susceptible (6-10 mm)) | Antibiotic resistance characteristics ([1]; Tetracycline): MR (MR-moderately resistant (1-5 mm)) | Antibiotic resistance characteristics ([1]; Vancomycin 5): MS (MS-moderately susceptible (6-10 mm)) | Antibiotic resistance characteristics ([1]; Vancomycin 30): MS (MS-moderately susceptible (6-10 mm)) | mean inhibitory zone size (Fusarium virguliforme; pathogen target isolate P20): 0 mm | mean inhibitory zone size (Fusarium virguliforme; pathogen target isolate P21): 0 mm | mean inhibitory zone size (Fusarium virguliforme; pathogen target isolate P22): 0 mm | mean inhibitory zone size (Fusarium virguliforme; pathogen target isolate P23): 3.58 mm | inhibition zone size ([2]; against GS1): < 5 mm | inhibition zone size ([2]; against GS3 (so in the source)): < 5 mm | effect on antibiotic production by the two other isolates [3]: enhance antibiotic production | zone of inhibition (Fusarium oxysporum; pathogen isolate P27): 0 mm | zone of inhibition (Fusarium oxysporum; pathogen isolate P29): 0 mm | mean inhibitory zone size (Fusarium oxysporum; pathogen target isolate P25): 0 mm | mean inhibitory zone size (Fusarium oxysporum; pathogen target isolate P26): 0 mm | mean inhibitory zone size (Fusarium oxysporum; pathogen target isolate P28): 0 mm | mean inhibitory zone size (Fusarium oxysporum; pathogen target isolate P29): 0 mm | more effective than other isolates in enhancing antibiotic production [4]: ~50% | share of a random collection of Streptomyces whose antibiotic production is enhanced [4]: 30% | zone of inhibition ([5]; Table 1, pathogen isolate P58): 0 mm | mean inhibitory zone size ([5]; Table 4, pathogen target isolate P58): 0 mm | zone of inhibition (Fusarium graminearum; pathogen isolate P31): 3.05 mm | zone of inhibition (Fusarium graminearum; pathogen isolate P34): 0 mm | mean inhibitory zone size (Fusarium graminearum; pathogen target isolate P30): 0 mm | mean inhibitory zone size (Fusarium graminearum; pathogen target isolate P31): 3.05 mm | mean inhibitory zone size (Fusarium graminearum; pathogen target isolate P32): 0 mm | mean inhibitory zone size (Fusarium graminearum; pathogen target isolate P33): 0 mm | mean inhibitory zone size (Fusarium graminearum; pathogen target isolate P34): 0 mm | mean inhibitory zone size (Fusarium graminearum; pathogen target isolate P35): 0 mm | zone of inhibition (Sclerotinia sclerotiorum; Table 1, pathogen isolate P19): 0 mm | mean inhibitory zone size (Sclerotinia sclerotiorum; pathogen target isolate P17): 12.8 mm | mean inhibitory zone size (Sclerotinia sclerotiorum; pathogen target isolate P18): 3.25 mm | mean inhibitory zone size (Sclerotinia sclerotiorum; pathogen target isolate P19): 0 mm
